Measurements from patent publication US20260285850A1, “SUBSTITUTED OXAZOLIDINONES AND IMIDAZOLINONES AS HERBICIDES” (FMC CORPORATION, priority 2023, published 2026).

Tests used:
Type in all cases: in vivo
[1] = tested on: barnyardgrass (Echinochloa crus-galli); experiment: Test A preemergence soil spray, visual injury rating 0-100; settings: 10 days
Outline: (§1)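 Seeds sown in loam-sand blend got a preemergence directed soil spray, or emerged plants (2-10 cm, one- to two-leaf) got a postemergence spray, of compound in non-phytotoxic solvent with surfactant. After 10 days in greenhouse, injury rated visually versus untreated controls on a 0 (no effect) to 100 (complete control) scale.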

[2] = tested on: blackgrass (Alopecurus myosuroides); experiment: as above; settings: 10 days
Outline: as §1

corn (Zea mays) [3] = experiment: as above; settings: 10 days
Outline: as §1

[4] = tested on: green foxtail (Setaria viridis); experiment: as above; settings: 10 days
Outline: as §1

kochia (Bassia scoparia) [5] = experiment: as above; settings: 10 days
Outline: as §1

[6] = tested on: oat, wild (wild oat, Avena fatua); experiment: as above; settings: 10 days
Outline: as §1

[7] = tested on: palmer (palmer amaranth, palmer pigweed, Amaranthus palmeri); experiment: as above; settings: 10 days
Outline: as §1

[8] = tested on: ragweed (common ragweed, Ambrosia artemisiifolia); experiment: as above; settings: 10 days
Outline: as §1

[9] = tested on: ryegrass, Italian (italian ryegrass, Lolium multiflorum); experiment: as above; settings: 10 days
Outline: as §1

soybean (Glycine max) [10] = experiment: as above; settings: 10 days
Outline: as §1

[11] = tested on: wheat (Triticum aestivum); experiment: as above; settings: 10 days
Outline: as §1

[12] = tested on: barnyardgrass (Echinochloa crus-galli); experiment: Test A postemergence application, visual injury rating 0-100
Outline: as §1

[13] = tested on: blackgrass (Alopecurus myosuroides); experiment: as above
Outline: as §1

corn (Zea mays) [14] = experiment: as above
Outline: as §1

[15] = tested on: galium (catchweed bedstraw, Galium aparine); experiment: as above
Outline: as §1

[16] = tested on: green foxtail (Setaria viridis); experiment: as above
Outline: as §1

[17] = tested on: horseweed (Erigeron canadensis); experiment: as above
Outline: as §1

kochia (Bassia scoparia) [18] = experiment: as above
Outline: as §1

[19] = tested on: oat, wild (wild oat, Avena fatua); experiment: as above
Outline: as §1

[20] = tested on: palmer (palmer amaranth, palmer pigweed, Amaranthus palmeri); experiment: as above
Outline: as §1

[21] = tested on: ragweed (common ragweed, Ambrosia artemisiifolia); experiment: as above
Outline: as §1

[22] = tested on: ryegrass, Italian (italian ryegrass, Lolium multiflorum); experiment: as above
Outline: as §1

soybean (Glycine max) [23] = experiment: as above
Outline: as §1

[24] = tested on: wheat (Triticum aestivum); experiment: as above
Outline: as §1

[25] = tested on: barnyardgrass (Echinochloa crusgalli); experiment: Test B flooded paddy test, visual plant response rating 0-100; settings: 250 g ai/ha, Flood, applied to paddy water, evaluated after 13 days
Outline: (§2)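 Paddy-water application: test compounds went directly into water flooded 3 cm above the soil surface, with plants at 2 leaves. After a 13-day greenhouse period, responses were judged by eye relative to controls; a dash marks an untested entry.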

[26] = tested on: ducksalad (Heteranthera limosa); experiment: as above; settings: 250 g ai/ha, Flood, applied to paddy water, evaluated after 13 days
Outline: as §2

rice (Oryza sativa) = experiment: as above; settings: 250 g ai/ha, Flood, applied to paddy water, evaluated after 13 days
Outline: as §2

[27] = tested on: sedge, umbrella (small-flower umbrella sedge, Cyperus difformis); experiment: as above; settings: 250 g ai/ha, Flood, applied to paddy water, evaluated after 13 days
Outline: as §2

[28] = 62 g ai/ha, 0 = no effect, 100 = complete control
[29] = 62 g ai/ha, postemergence, 10 days, 0 = no effect, 100 = complete control
[30] = Postemergence, 16 g ai/ha, greenhouse 10 days, 0 no effect, 100 complete control

CC1(C(=O)NC2CC=C(C(=O)NS(C)(=O)=O)C2)CN(c2cc(F)cc(F)c2)C(=O)O1 (racemic) [Compound 103]
0: Barnyardgrass plant response rating ([1]; 16 g ai/ha, 0 to 100 scale) | Blackgrass plant response rating ([2]; 16 g ai/ha, 0 to 100 scale) | Blackgrass plant response rating (0-100) [2, 28] | Corn plant response rating (corn (Zea mays) [3]; 16 g ai/ha, 0 to 100 scale) | Kochia plant response rating (kochia (Bassia scoparia) [5]; 16 g ai/ha, 0 to 100 scale) | Oat, Wild plant response rating ([6]; 16 g ai/ha, 0 to 100 scale) | Oat, Wild plant response rating (0-100) [6, 28] | Pigweed, Palmer plant response rating ([7]; 16 g ai/ha, 0 to 100 scale) | Ragweed plant response rating ([8]; 16 g ai/ha, 0 to 100 scale) | Ragweed plant response rating (0-100) [8, 28] | Ryegrass, Italian plant response rating ([9]; 16 g ai/ha, 0 to 100 scale) | Wheat plant response rating ([11]; 16 g ai/ha, 0 to 100 scale) | Blackgrass plant response rating (0 to 100 scale) [13, 30] | Foxtail, Green plant response rating (0 to 100 scale) [16, 30] | Horseweed plant response rating (0-100) [17, 29] | Horseweed plant response rating (0 to 100 scale) [17, 30] | Oat, Wild plant response rating (0 to 100 scale) [19, 30] | Ryegrass, Italian plant response rating (0 to 100 scale) [22, 30] | Plant response rating, Barnyardgrass (0 to 100 scale, 0 is no effect and 100 is complete control) [25] | Plant response rating, Ducksalad (0 to 100 scale, 0 is no effect and 100 is complete control) [26] | Plant response rating, Rice (0 to 100 scale, 0 is no effect and 100 is complete control) (rice (Oryza sativa)) | Plant response rating, Sedge, Umbrella (0 to 100 scale, 0 is no effect and 100 is complete control) [27]
70: Pigweed, Palmer plant response rating (0-100) [20, 29] | Wheat plant response rating (0-100) [24, 29]
50: Kochia plant response rating (0-100) (kochia (Bassia scoparia) [5]; [28]) | Barnyardgrass plant response rating (0 to 100 scale) [12, 30]
80: Pigweed, Palmer plant response rating (0-100) [7, 28] | Corn plant response rating (0-100) (corn (Zea mays) [14]; [29]) | Kochia plant response rating (0-100) (kochia (Bassia scoparia) [18]; [29])
10: Barnyardgrass plant response rating (0-100) [1, 28] | Corn plant response rating (0-100) (corn (Zea mays) [3]; [28]) | Corn plant response rating (0 to 100 scale) (corn (Zea mays) [14]; [30]) | Galium plant response rating (0 to 100 scale) [15, 30] | Ragweed plant response rating (0 to 100 scale) [21, 30] | Soybean plant response rating (0 to 100 scale) (soybean (Glycine max) [23]; [30])
100: Barnyardgrass plant response rating (0-100) [12, 29]
30: Ragweed plant response rating (0-100) [21, 29] | Ryegrass, Italian plant response rating (0-100) [22, 29]
20: Foxtail, Green plant response rating ([4]; 16 g ai/ha, 0 to 100 scale) | Soybean plant response rating (soybean (Glycine max) [10]; 16 g ai/ha, 0 to 100 scale) | Soybean plant response rating (0-100) (soybean (Glycine max) [10]; [28]) | Kochia plant response rating (0 to 100 scale) (kochia (Bassia scoparia) [18]; [30]) | Oat, Wild plant response rating (0-100) [19, 29] | Wheat plant response rating (0 to 100 scale) [24, 30]
90: Foxtail, Green plant response rating (0-100) [16, 29]
40: Foxtail, Green plant response rating (0-100) [4, 28] | Ryegrass, Italian plant response rating (0-100) [9, 28] | Blackgrass plant response rating (0-100) [13, 29] | Soybean plant response rating (0-100) (soybean (Glycine max) [23]; [29])
60: Wheat plant response rating (0-100) [11, 28] | Galium plant response rating (0-100) [15, 29] | Pigweed, Palmer plant response rating (0 to 100 scale) [20, 30]
